Measured values from paper PMC3927067 (Journal of Computer-Aided Molecular Design, 2014).
Values joined by “and” are separate entries in the source; they are usually repeats but may differ in a detail not shown here. Equal values may be shown once. Read-outs that look alike come from different tables or passages of the source.

Experiments:
hOX1R = molecular target: T1, hOX1R (Homo sapiens, UniProt O43613); assay: Orexin 1 receptor binding assay
T1 sequence (O43613 1-425): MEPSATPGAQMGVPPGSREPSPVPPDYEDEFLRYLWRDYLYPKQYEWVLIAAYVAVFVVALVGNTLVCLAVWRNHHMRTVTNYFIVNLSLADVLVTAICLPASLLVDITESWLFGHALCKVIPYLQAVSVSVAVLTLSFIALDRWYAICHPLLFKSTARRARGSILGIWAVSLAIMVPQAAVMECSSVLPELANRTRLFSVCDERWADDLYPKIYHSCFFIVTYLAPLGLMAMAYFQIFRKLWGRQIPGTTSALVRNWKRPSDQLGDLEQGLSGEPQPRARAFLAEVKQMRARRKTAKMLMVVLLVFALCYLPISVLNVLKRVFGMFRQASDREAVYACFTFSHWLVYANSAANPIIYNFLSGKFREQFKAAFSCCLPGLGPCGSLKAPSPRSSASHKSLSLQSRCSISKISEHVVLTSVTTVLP

hOX2R = molecular target: T2, hOX2R (Homo sapiens, UniProt O43614); assay: Orexin 2 receptor binding assay
T2 sequence (O43614 1-444): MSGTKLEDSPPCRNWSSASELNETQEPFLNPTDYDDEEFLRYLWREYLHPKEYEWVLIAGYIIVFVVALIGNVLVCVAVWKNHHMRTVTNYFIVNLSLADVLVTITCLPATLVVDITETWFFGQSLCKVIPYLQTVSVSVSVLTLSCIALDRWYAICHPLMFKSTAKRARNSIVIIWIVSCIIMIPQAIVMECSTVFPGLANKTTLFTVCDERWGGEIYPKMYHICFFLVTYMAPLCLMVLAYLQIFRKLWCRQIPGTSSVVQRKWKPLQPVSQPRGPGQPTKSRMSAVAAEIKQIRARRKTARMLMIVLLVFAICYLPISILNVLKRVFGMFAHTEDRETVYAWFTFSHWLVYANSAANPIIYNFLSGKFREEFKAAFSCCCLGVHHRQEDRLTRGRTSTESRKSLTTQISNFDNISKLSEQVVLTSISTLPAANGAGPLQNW

[1] = parameters: method as in PMID 20565075; conditions: cited from earlier work
[2] = cited from earlier work
[3] = NMR solution conformation (NOE); assay type: physicochemical; conditions: CD3OD at −40 °C
Text: Although the molecular and quantum mechanical methods were in agreement with one another, we sought additional experimental methods to either support or refute our initial computational findings. We first determined the unbound, small-molecule crystal structure. The RMSD between the computationally derived conformation depicted in Fig. 1 and the X-ray structure was 0.75 Å (non-hydrogen atoms). Additionally, no differences between the geometries of the nitrogen atoms of the seven-membered ring nor the amide bond were observed between the theoretically and experimentally derived conformations. Even though there was no computed difference between the conformations (Table 1) when implicit solvent was invoked, we sought to experimentally confirm that the solution state conformation was consistent with the aforementioned theoretical and crystal structure experiments. There was again excellent agreement from NMR spectroscopy applied to compound 1, with NOE evidence for the F2F interaction in the major rotamer. In fact, two F2F rotamers in the ensemble accounted for 82 % of the total solution conformation (CD3OD at −40 °C), each with a motif similar to that found by computational analysis and X-ray structure.

[4] = Brain/plasma ratio, iv infusion study; conditions: rat
preclinical species = assay: In vivo sleep promotion
[5] = mean of replicates, read-out: OX1R Ki
[6] = mean of replicates, read-out: OX2R Ki
[7] = supplement, individual replicates, Ki and nM taken from Table 3, read-out: OX2R individual replicate
[8] = supplement, unlabelled mean below the replicates, Ki and nM taken from b8/Table 3, read-out: OX2R mean of replicates
[9] = supplement, individual replicates, Ki and nM taken from Table 3, read-out: OX1R individual replicate
[10] = supplement, unlabelled mean below the replicates, Ki and nM taken from b8/Table 3, read-out: OX1R mean of replicates

Row | SMILES | times less active than compound 4 (hOX1R; binding, relative to compound 4, receptor not specified) | Ki (hOX1R; [5]) [nM] | Ki (hOX2R; [6]) [nM] | Ki (hOX2R; [7]) | Ki (hOX2R; [8]) [nM] | Ki (hOX1R; [9]) | Ki (hOX1R; [10]) [nM] | in vivo activity [1] | metabolic liability [2] | share of two F2F rotamers in total solution conformation [3] [%] | Kp ([4]; brain and plasma, iv) | CNS penetration ([4]; iv infusion study) | sleep promotion in vivo (preclinical species) | toxicology profile (Toxicology profile) | metabolic issues ([2]; benzoxazole replacing quinazoline ring)
1 | Cc1ccc(-n2nccn2)c(C(=O)N2CC3CC2CCN3c2ncc3cc(F)ccc3n2)c1 (stereo not drawn) [Compound 5] | > 1,000 times | > 1700 | 2740 | 2800 nM and 2280 nM and 3150 nM | 2740 | – | – | – | – | – | – | – | – | – | –
2 | O=C(c1cc(Cl)ccc1-n1nccn1)N1CC2CC(C1)N(c1ncc3cc(F)ccc3n1)C2 (stereo not drawn) [Compound 4] | – | 0.4 | 0.6 | 0.66 nM and 0.57 nM | 0.615 | 0.43 nM and 0.42 nM | 0.425 | – | – | – | – | – | – | – | –
3 | C[C@@H]1CCN(c2ncc3cc(F)ccc3n2)CCN1C(=O)c1cc(Cl)ccc1-n1nccn1 [Compound 6] | – | 0.6 | 0.2 | 0.19 nM and 0.11 nM | 0.15 | 0.9 nM and 0.31 nM | 0.605 | excellent in vivo activity | metabolic liability | – | – | – | – | – | –
4 | Cc1ccc(-n2nccn2)c(C(=O)N2CCCN(c3ncc4ccccc4n3)CC2)c1 [Compound 1] | – | 1.2 | 0.8 | 0.773 nM and 0.86 nM and 1.01 nM and 0.775 nM and 0.811 nM and 0.65 nM and 0.64 nM and 0.61 nM and 0.57 nM and 0.606 nM and 0.41 nM and 0.72 nM and 0.754 nM and 0.866 nM and 0.905 nM and 0.731 nM and 1.31 nM and 0.954 nM and 0.71 nM | – | 2.2 nM and 0.71 nM and 0.58 nM and 1.3 nM and 0.94 nM and 0.62 nM and 0.54 nM and 2.4 nM and 1.4 nM | 1.2 | – | – | 82 | – | – | – | – | –
5 | Cc1ccc(-n2nccn2)c(C(=O)N2CCN(c3nc4cc(Cl)ccc4o3)CC[C@H]2C)c1 [Compound 7, Suvorexant] | – | – | – | – | – | – | – | – | – | – | 0.6 to 1.2 | CNS penetrant | promote sleep in preclinical species in a dose dependent fashion | favorable toxicology profile | devoid of the metabolic issues
